Assay results taken from patent US20120316161A1, “NOVEL ANTIVIRAL COMPOUNDS” (KATHOLIEKE UNIVERSITEIT LEUVEN, priority 2009, published 2012).
pEC50: −log10 of the molar value. Like-named read-outs stand apart in the source and are kept apart here.

Assays:
[1] = target: T1, LEDGF-integrase interaction (His6-tagged HIV-1 integrase, flag-LEDGF/p75) (Human immunodeficiency virus type 1 group M subtype B, UniProt P04585); assay: AlphaScreen assay of LEDGF-integrase interaction inhibition; format: binding; settings: compound at 100 μM
T1 construct: His6-tagged HIV-1 integrase; made in house
Experimental: The AlphaScreen assay was performed according to the manufacturer's protocol (Perkin Elmer, Benelux). Reactions were performed in 25 μl final volume in 384-well Optiwell™ microtiter plates (Perkin Elmer). The reaction buffer contained 25 mM Tris-HCl (pH 7.4), 150 mM NaCl, 1 mM MgCl2, 0.01% (v/v) Tween-20 and 0.1% (w/v) bovine serum albumin. His6-tagged integrase (300 nM final concentration) was incubated with the compounds for 30 min at 4° C. The compounds were added at varying concentrations spanning a wide range from 0.1 up to 100 μM. Afterwards 100 nM flag-LEDGF/p75 was added and incubation was prolonged for an additional hour at 4° C. Subsequently 5 μl of Ni-chelate—coated acceptor beads and 5 μl anti-flag donor beads were added to a final concentration of 20 μg/ml of both beads. Proteins and beads were incubated for 1 h at 30° C. in order to allow association to occur. Exposure of the reaction to direct light was omitted as much as possible and the emission of light from the acceptor beads was measured in the EnVision plate reader (Perkin Elmer, Benelux) and analyzed using the EnVision manager software. IN/DNA binding was analyzed in a similar setting using His6-tagged integrase (1 μM final concentration) and an oligodeoxynucleotide mimicking the IN ELISA oligonucleotide substrate (30 nM final concentration). Counterscreens with JPO2 or PogZ, respectively, were essentially performed as described previously. Expression and purification of recombinant proteins: His6-tagged HIV-1 integrase, 3xflag-tagged LEDGF/p75, MBP-JPO2 and MBP-PogZ were purified for AlphaScreen applications as described previously.

[2] = tested on: HIV; assay: microbe, parasite or virus in culture; format: cell-based
Experimental: (§1) A rapid and automated assay procedure was used for the in vitro evaluation of anti-HIV agents. An HTLV-1 transformed T4-cell line MT-4, which was previously shown to be highly susceptible to and permissive for HIV infection, served as the target cell line. Inhibition of the HIV-induced cytopathogenic effect was used as the end point. The viability of both HIV-and mock-infected cells was assessed spectrophotometrically via in situ reduction of 3-(4,5-dimethylthiazol-2-yl)-2,5-diphenyltetrazolium bromide (MTT). The 50% cytotoxic concentration (CC50 in μg/ml) was defined as the concentration of compound that reduced the absorbance of the mock-infected control sample by 50%. The percent protection achieved by the compound in HIV-infected cells was calculated by the following formula: […]
whereby (ODT)HIV is the optical density measured with a given concentration of the test compound in HIV-infected cells; (ODC)HIV is the optical density measured for the control untreated HIV-infected cells; (ODC)MOCK is the optical density measured for the control untreated mock-infected cells; all optical density values were determined at 540 nm. The dose achieving 50% protection according to the above formula was defined as the 50% inhibitory concentration (EC50 in μg/ml or μM). The ratio of CC50 to EC50 was defined as the selectivity index (SI). […] Examples of inhibition of cell proliferation by particular compounds of the invention can be found by looking at the respective CC50 values in the MT-4 cell line. Cells: MT-4 cells (Miyoshi et al., 1982) were grown and maintained in RPMI 1640medium supplemented with 10% heat-inactivated fetal calf serum, 2 mM 1-glutamine, 0.1% sodium bicarbonate, and 20æg of gentamicin per ml.
Viruses: The HIV-1 (NL4.3) strain (Adachi et al., 1986) is a molecular clone obtained from the National Institutes of Health (Bethesda, Md.). The HIV-2 (ROD) (Barr, -Sinoussi et al., 1983) stock was obtained from culture supernatant of HIV-2 infected cell lines.

[3] = tested on: MT-4 cells; assay: Cytotoxicity in mock-infected MT-4 cells (MTT); format: cell-based
Experimental: as §1, with “The 50% cytotoxic concentration (CC50 in μg/ml) was defined as the concentration of compound that reduced the absorbance of the mock-infected control sample by 50%.” left out
(§2) whereby (ODT)HIV is the optical density measured with a given concentration of the test compound in HIV-infected cells; (ODC)HIV is the optical density measured for the control untreated HIV-infected cells; (ODC)MOCK is the optical density measured for the control untreated mock-infected cells; all optical density values were determined at 540 nm. […] The ratio of CC50 to EC50 was defined as the selectivity index (SI).

[4] = Cytotoxicity in mock-infected MT-4 cells (MTT); format: cell-based; settings: human, mock-infected MT-4 cells
Experimental: as §1, with “The 50% cytotoxic concentration (CC50 in μg/ml) was defined as the concentration of compound that reduced the absorbance of the mock-infected control sample by 50%.” left out
as §2

[5] = 50% protection of HIV-infected MT-4 cells, read-out: EC50
[6] = mock-infected MT-4 cells, read-out: CC50
[7] = Human immunodeficiency virus 1, MT4
[8] = Human immunodeficiency virus 1, MT4, 50% protection of HIV-infected MT-4 cells, read-out: EC50

| Compound | Alpha screen % (100 μM) [1] | pEC50 [2, 5] | CC50 [3, 6] | CC50 [3] | pEC50 [2, 7] | CC50 [4] | pEC50 [2, 8] |
| --- | --- | --- | --- | --- | --- | --- | --- |
| 2-[2-tert-butyl-7-(2-hydroxy-4-methylphenyl)-5-methylpyrazolo[1,5-a]pyrimidin-6-yl]acetic acid [CPD-117] | 95% | 5.69 | 116 µM |  |  |  |  |
| Ethyl 2-(2-benzyl-5-methyl-7-p-tolyl-[1,2,4]-triazolo[1,5-a]pyrimidin-6-yl)pentanoate [CPD-123] |  | 4.58 |  | 126 µM |  |  |  |
| 2-[2-tert-butyl-7-(1,2-dihydroacenaphthylen-5-yl)-5-methylpyrazolo[1,5-a]pyrimidin-6-yl]acetic acid [CPD-111] | 89% |  | 50 µM |  |  |  |  |
| CCCC(C(=O)O)c1c(C)nc2cc(C(C)(C)C)nn2c1-c1ccc(C(C)C)cc1 (stereo not drawn) [CPD-89, 2-(2-tert-butyl-5-methyl-7-(4-iso-propylphenyl)pyrazolo[1,5-a]pyrimidin-6-yl)pentanoic acid] | 89% |  |  |  | 4.62 | 139 µM |  |
| CCCC(C(=O)O)c1c(C)nc2cc(C(C)(C)C)nn2c1-c1ccccc1 (stereo not drawn) [CPD-58, 2-(2-tert-butyl-5-methyl-7-phenylpyrazolo[1,5-a]pyrimidin-6-yl)pentanoic acid] | 77% |  |  |  |  | 121 µM | 4.56 |
| COCCC(C(=O)O)c1c(C)nc2cc(C(C)(C)C)nn2c1-c1ccc(C)cc1 (stereo not drawn) [CPD-88, 2-(2-tert-butyl-7-p-tolyl-5-methylpyrazolo[1,5-a]pyrimidin-6-yl)-4-methoxybutanoic acid] | 44% |  |  |  |  | > 250 µM | 4.42 |
| 2-[2-tert-butyl-7-(1,2-dihydroacenaphthylen-5-yl)-5-methylpyrazolo[1,5-a]pyrimidin-6-yl]acetic acid [CPD-112] | 93% |  | 59 µM |  |  |  |  |
| CCCC(C(=O)O)c1c(C)nc2cc(C(C)(C)C)nn2c1-c1ccc(CC)cc1 (stereo not drawn) [CPD-71, 2-(2-tert-butyl-7-(4-ethylphenyl)-5-methylpyrazolo[1,5-a]pyrimidin-6-yl)pentanoic acid] | 74% |  |  |  |  | 73 µM | 5.55 |
| CCCC(C(=O)O)c1c(C)nc2cc(C(C)(C)C)nn2c1-c1ccc2sccc2c1 (stereo not drawn) [CPD-67, 2-(7-(benzo[b]thiophen-5-yl)-2-tert-butyl-5-methylpyrazolo[1,5-a]pyrimidin-6-yl)pentanoic acid] | 93% |  |  |  |  | 70 µM | 5.53 |
| CCCC(C(=O)O)c1c(C)nc2cc(C(C)(C)C)nn2c1-c1ccc(C)cc1 (stereo not drawn) [CPD-59, 2-(2-tert-butyl-5-methyl-7-p-tolylpyrazolo[1,5-a]pyrimidin-6-yl)pentanoic acid] | 92% |  |  |  |  | > 250 µM | 4.84 |
| CCCC(C(=O)O)c1c(C)nc2c(Br)c(C(C)(C)C)nn2c1-c1ccc(C)cc1 (stereo not drawn) [CPD-60, 2-(3-bromo-2-tert-butyl-5-methyl-7-p-tolylpyrazolo[1,5-a]pyrimidin-6-yl)pentanoic acid] | 92% |  |  |  |  | 56.3 µM | 5.62 |
| CCCC(C(=O)O)c1c(C)nc2cc(C(C)(C)C)nn2c1-c1ccc(C)cc1C (stereo not drawn) [CPD-98, 2-(2-tert-butyl-7-(2,4-dimethylphenyl)-5-methylpyrazolo[1,5-a]pyrimidin-6-yl)pentanoic acid] | 89% |  |  |  | 5.23 | 69 µM |  |
| CCCC(C(=O)O)c1c(C)nc2cc(C(C)(C)C)nn2c1-c1ccc(OC)cc1F (stereo not drawn) [CPD-95, 2-(2-tert-butyl-7-(2-fluoro-4-methoxyphenyl)-5-methylpyrazolo[1,5-a]pyrimidin-6-yl)pentanoic acid] | 83% |  |  |  |  | 115 µM | 5.13 |
| CCCC(C(=O)O)c1c(C)nc2cc(C(C)(C)C)nn2c1-c1ccc2c(c1)OCCCO2 (stereo not drawn) [CPD-72, 2-(2-tert-butyl-7-(3,4-dihydro-2H-benzo[b][1,4]dioxepin-7-yl)-5-methylpyrazolo[1,5-a]pyrimidin-6-yl)pentanoic acid] | 93% |  |  |  |  | > 125 µM | 4.65 |
